Data as given in a compilation of properties of binary mixtures (doi:10.7498/aps.66.196101).

Test: xn = mol fraction of the nth substance listed
Settings: 100 kPa

CCC[n+]1ccccc1.N#C[N-]C#N + O
Settings	electrical conductivity, x1 = 0.9305 [S/m]	electrical conductivity, x1 = 0.9444 [S/m]	electrical conductivity, x1 = 0.9588 [S/m]	electrical conductivity, x1 = 0.9735 [S/m]	electrical conductivity, x2 = 0.0114 [S/m]	viscosity, x1 = 0.9277 [mPa·s]	viscosity, x1 = 0.9416 [mPa·s]	viscosity, x1 = 0.9559 [mPa·s]	viscosity, x1 = 0.9705 [mPa·s]	viscosity, x2 = 0.0144 [mPa·s]
298.15 K	–	1.44	1.41	1.37	1.34	20.93	21.6	–	–	24.55
303.15 K	–	–	1.61	–	1.53	17.56	18.05	18.78	19.65	20.53
308.15 K	2.03	1.97	1.91	1.86	1.81	15.11	15.43	15.97	16.69	17.49
313.15 K	2.35	2.3	2.23	2.17	–	–	13.31	–	14.28	14.87
318.15 K	2.64	–	2.57	2.52	2.47	11.38	11.63	11.99	–	12.93
323.15 K	2.98	–	2.92	–	2.84	–	9.95	10.29	10.68	11.07
328.15 K	3.42	3.38	3.33	3.29	3.25	8.53	–	–	9.21	9.66
333.15 K	3.88	–	3.77	–	3.68	7.65	7.77	7.97	8.23	8.57
338.15 K	4.31	4.27	–	4.17	4.11	6.91	7.01	–	7.41	7.68

CCCn1cc[n+](C)c1.N[C@@H](CO)C(=O)[O-] + O
Settings	electrical conductivity, x1 = 0.8651 [S/m]	electrical conductivity, x1 = 0.881 [S/m]	electrical conductivity, x1 = 0.8954 [S/m]	electrical conductivity, x1 = 0.9112 [S/m]	electrical conductivity, x1 = 0.9275 [S/m]	viscosity, x1 = 0.878 [mPa·s]	viscosity, x1 = 0.8933 [mPa·s]	viscosity, x1 = 0.909 [mPa·s]	viscosity, x1 = 0.9253 [mPa·s]	viscosity, x1 = 0.9422 [mPa·s]
298.15 K	0.0244	0.0231	0.0219	0.0204	0.0191	–	2259	–	–	2495
303.15 K	0.0369	0.0356	0.0339	0.0321	0.0301	1399	1414	1439	1477	–
308.15 K	0.0559	0.0538	0.0521	0.0497	0.0469	–	923	942	966	1000
313.15 K	–	0.0775	–	–	0.0685	617	624	633	650	670
318.15 K	0.112	0.109	0.106	–	–	428	–	–	447	462
323.15 K	0.154	–	–	0.14	0.135	300	306	312	322	–
328.15 K	0.204	–	0.194	0.187	0.182	229	231	234	–	245
333.15 K	0.268	0.261	0.256	–	0.241	–	172.3	174.6	178.4	183
338.15 K	0.342	0.333	0.327	–	–	130.5	131.1	132.4	–	137.2

CC[n+]1ccccc1.N#C[N-]C#N + O
Settings	electrical conductivity, x1 = 0.9285 [S/m]	electrical conductivity, x1 = 0.9414 [S/m]	electrical conductivity, x1 = 0.9545 [S/m]	electrical conductivity, x1 = 0.9681 [S/m]	electrical conductivity, x2 = 0.0181 [S/m]	viscosity, x1 = 0.9353 [mPa·s]	viscosity, x1 = 0.9484 [mPa·s]	viscosity, x1 = 0.9617 [mPa·s]	viscosity, x1 = 0.9754 [mPa·s]	viscosity, x2 = 0.0105 [mPa·s]
298.15 K	2.27	–	2.06	–	1.86	14.98	15.27	15.62	16.02	–
303.15 K	2.46	2.37	–	2.18	2.08	12.98	13.23	13.58	–	14.38
308.15 K	2.75	2.66	–	2.48	2.39	11.41	11.59	11.87	12.17	–
313.15 K	3.05	2.98	2.9	–	2.74	–	10.26	–	10.73	–
318.15 K	3.39	3.33	–	3.18	3.1	8.95	9.11	9.32	9.52	9.75
323.15 K	3.85	3.78	3.7	3.61	3.54	7.77	7.9	8.08	–	8.44
328.15 K	4.34	4.26	4.18	4.08	4.01	7.01	7.13	7.28	–	7.61
333.15 K	–	–	4.7	–	4.48	6.35	6.45	6.58	6.73	6.88
338.15 K	5.47	5.34	5.24	5.11	5.01	–	–	5.98	–	6.22

CCn1cc[n+](C)c1.N[C@@H](CO)C(=O)[O-] + O
electrical conductivity [S/m]
Settings	303.15 K	308.15 K	313.15 K	318.15 K	323.15 K	328.15 K	333.15 K	338.15 K
x1 = 0.8695	0.102	0.14	0.176	–	0.276	0.348	–	0.526
x1 = 0.8836	0.1	0.138	0.174	–	0.273	–	–	0.522
x1 = 0.8982	0.0982	0.135	0.172	0.218	0.271	0.343	0.429	0.518
x1 = 0.9131	0.0964	–	–	0.216	–	0.341	0.426	0.515
x1 = 0.9275	–	0.13	–	0.213	0.266	0.338	0.423	–
